Laboratory results: patent publication US20150132746A1, “SAMPLING MEDIUM” (UNIVERSITY OF OSLO, priority 2012, published 2015)
Counter-ions that a name gives are not always drawn. Like-named read-outs stand apart in the source and are kept apart here.

Assays:
[1] = Long term stability of model analytes in dried oral fluid stored 30 days on alginate or chitosan foam; assay type: physicochemical, human; details: n = 3
Description: The results are shown in Tables 3 and 4 for alginate and chitosan foam, respectively. No sample loss is observed after 30 days of storage. The stability of the model analytes by storing oral fluid on alginate and chitosan foam was considered satisfactory.

[2] = whole blood 70 ng/ml on alginate foam
[3] = cited from earlier work
[4] = oral fluid on alginate foam, theoretical 100 ng/ml, stored at 4 C
[5] = oral fluid on alginate foam, theoretical 100 ng/ml, stored at 37 C
[6] = oral fluid on alginate foam, theoretical 100 ng/ml, stored at room temperature
[7] = oral fluid on alginate foam, theoretical 100 ng/ml, stored at −18 C
[8] = oral fluid on alginate foam, theoretical 500 ng/ml, stored at 4 C
[9] = oral fluid on alginate foam, theoretical 500 ng/ml, stored at 37 C
[10] = oral fluid on alginate foam, theoretical 500 ng/ml, stored at room temperature
[11] = oral fluid on alginate foam, theoretical 500 ng/ml, stored at −18 C
[12] = oral fluid on chitosan foam, theoretical 100 ng/ml, stored at 4 C
[13] = oral fluid on chitosan foam, theoretical 100 ng/ml, stored at 37 C
[14] = oral fluid on chitosan foam, theoretical 100 ng/ml, stored at room temperature
[15] = oral fluid on chitosan foam, theoretical 100 ng/ml, stored at −18 C
[16] = oral fluid on chitosan foam, theoretical 500 ng/ml, stored at 4 C
[17] = oral fluid on chitosan foam, theoretical 500 ng/ml, stored at 37 C
[18] = oral fluid on chitosan foam, theoretical 500 ng/ml, stored at room temperature
[19] = oral fluid on chitosan foam, theoretical 500 ng/ml, stored at −18 C

SMILES | Measured concentration at day 30 [1, 4] [ng/mL] | Measured concentration at day 30 [1, 5] [ng/mL] | Measured concentration at day 30 [1, 6] [ng/mL] | Measured concentration at day 30 [1, 7] [ng/mL] | Measured concentration at day 30 [1, 8] [ng/mL] | Measured concentration at day 30 [1, 9] [ng/mL] | Measured concentration at day 30 [1, 10] [ng/mL] | Measured concentration at day 30 [1, 11] [ng/mL] | Measured concentration at day 30 [1, 12] [ng/mL] | Measured concentration at day 30 [1, 13] [ng/mL] | Measured concentration at day 30 [1, 14] [ng/mL] | Measured concentration at day 30 [1, 15] [ng/mL] | Measured concentration at day 30 [1, 16] [ng/mL] | Measured concentration at day 30 [1, 17] [ng/mL] | Measured concentration at day 30 [1, 18] [ng/mL] | Measured concentration at day 30 [1, 19] [ng/mL] | Nominal concentration at day 50 ([2]; stored at 4° C.) [ng/mL] | Nominal concentration at day 50 ([2]; stored at 37° C.) [ng/mL] | Nominal concentration at day 50 ([2]; stored at room temperature) [ng/mL] | Nominal concentration at day 50 ([2]; stored at −18° C.) [ng/mL] | other results
CO[C@@]12CC[C@@]3(C[C@@H]1[C@](C)(O)C(C)(C)C)[C@H]1Cc4ccc(O)c5c4[C@@]3(CCN1CC1CC1)[C@H]2O5.Cl [Buprenorphine, buprenorphine hydrochloride] | 101 | 115 | 97 | 96 | 790 | 656 | 642 | 656 | 105 | 100 | 101 | 101 | 569 | 595 | 595 | 611 | – | – | – | – | –
CN(C)CCCC1(c2ccc(F)cc2)OCc2cc(C#N)ccc21 (stereo not drawn) [Citalopram, citalopram hydrobromide] | – | – | – | – | – | – | – | – | – | – | – | – | – | – | – | – | 64 | 59 | 64 | 72 | –
CCC(=O)C(CC(C)N(C)C)(c1ccccc1)c1ccccc1 (stereo not drawn) [Methadone, Methadone hydrochloride] | 113 | 117 | 103 | 106 | 636 | – | 582 | 602 | 115 | 108 | 113 | 105 | 564 | 545 | 582 | 599 | 63 | 54 | 61 | 79 | –
CN[C@@H](C)Cc1ccccc1 [Methamphetamine] | 107 | 42 | 72 | 103 | 645 | 319 | 466 | 687 | 126 | 80 | 98 | 117 | 744 | 467 | 601 | 732 | – | – | – | – | –
COc1ccc(CC(C)N)cc1 (stereo not drawn) [PMA, para-methoxyamphetamine] | 115 | 53 | 80 | 105 | 722 | 406 | 628 | 717 | 127 | 131 | 104 | 122 | 765 | 648 | 719 | 769 | – | – | – | – | –
CNC(C)Cc1ccc(OC)cc1 (stereo not drawn) [PMMA, para-methoxymethamphetamine] | 114 | 76 | 197 | 114 | 715 | 475 | 628 | 726 | 123 | 112 | 104 | 119 | 765 | 623 | 647 | 769 | – | – | – | – | –
CN[C@H]1CC[C@@H](c2ccc(Cl)c(Cl)c2)c2ccccc21 [Sertraline, sertraline hydrochloride] | – | – | – | – | – | – | – | – | – | – | – | – | – | – | – | – | 69 | 61 | 77 | 64 | –
N[C@H]1C(O)O[C@H](CO)[C@@H](O)[C@@H]1O (stereo partly drawn) [glucosamine] | – | – | – | – | – | – | – | – | – | – | – | – | – | – | – | – | – | – | – | – | pKa [3]: 6.3
O=C[C@H](O)[C@H](O)[C@@H](O)[C@H](O)C(=O)O [guluronic, guluronic acid] | – | – | – | – | – | – | – | – | – | – | – | – | – | – | – | – | – | – | – | – | pKa [3]: 3.65
